Source: article PMC9249808, “A novel lipidic peptide with potential to promote balanced effector-regulatory T cell responses” (Scientific Reports, 2022)
Non-standard residues stand in square brackets, D forms with d. Residues, ends and D or L forms follow the SMILES beside them. Gly(decyl) = CCCCCCCCCC[C@H](N)C(=O)O

Columns and labels:
[1] = tested on: CD3+ T cell cultures; assay: Cytokine ELISA on supernatants of isolated CD3+ T cell cultures; type: cell-based, human
Protocol: CD3^+ T cells were isolated from PBMCs by negative selection using immune-magnetic separation (Stem cell kits), resuspended in complete medium as used for PBMCs at 0.5 × 10^6/mL and plated at a density of 5 × 10^4 per well (100 µL) in 96-well, flat bottom culture plates. CD4^+ and CD8^+ T cell populations were isolated by immunomagnetic separation and resuspended in RPMI-10 at 0.5 × 10^6/mL with a plating density of 0.5 × 10^5 per well. Either the lipidic peptide, IK14004, or IK14000 ([…]) was added to wells at a final volume of 50 µL per well, together with anti-CD3 anti-CD28 coated Dynabeads (ThermoFisher) at a 4:1 cell:bead ratio (1.25 × 10^4/well, 50 µL volume) and cells cultured for 72 h at 37 °C and 5% CO2.
Supernatants were obtained from PBMC and isolated CD3+ T cells cultures to assess production of IL-2, IL-12p70, IL-10 and IFN-γ (ThermoFisher kits) and IL-12p40 (Biolegend). […] ELISA plates were read at 450 nm using an Infinite F50 (Tecan) absorbance reader and Magellan™ reader control and data analysis software. Flow cytometry data was exported as FCS files from Attune™ NxT software and analysed using FlowJo™ software, from which data were tabulated for export to Microsoft Excel. […]
For flow cytometry and ELISA experiments, data from IK14004 and vehicle groups were analysed using parametric statistical procedures. […]

[2] = tested on: Lck; conditions: in vitro; read-out: IC50, inhibition of Lck activity; cited from earlier work
[3] = tested on: IL-2 production; conditions: cited from earlier work
[4] = target: T1, Tyk2 (Homo sapiens, UniProt P29597); assay: Kinase profiling, Tyk2; type: biochemical; conditions: non-cell-based, [γ-33P-ATP], 2% DMSO, no pre-incubation, Fig. 6i
T1 construct: purchased Eurofins (France), KinaseProfiler service
Protocol: (§1) Non-cell-based kinase profiling assays were performed by Eurofins (France). All compounds were prepared to 50 × final assay concentration in 100% DMSO. This working stock of the compound was added to assay wells as the first component in the reaction, followed by the remaining components as detailed in the specific assay protocols below. In the standard KinaseProfiler service, there was no pre-incubation step between the compound and the kinase prior to initiation of the reaction. Control wells contained all components of the reaction, except the compound of interest; however, DMSO (at a final concentration of 2%) was included in these wells to control for solvent effects. […] The reference inhibitors for each kinase are indicated in the methods for each kinase assay. […] Kinase activities were assessed in the presence of compounds at a concentration range of 0.003 -10 uM and the following kinases were tested: c-Src, Lck, Jak1, Jak2, Tyk2, CaMKIV and HPK1 (MAP4K1). Reactions between IK14004, substrates and MgAcetate/[γ^33P-ATP] mixes for each respective kinase were stopped by the addition of phosphoric acid and reaction mixtures spotted on P30 filtermats for scintillation according to the detailed methods available from Eurofins. The activities of Lck and c-Src were also assessed in the presence of the unconjugated components of IK14004, i.e., […] […]

[5] = target: T2, HPK1 (MAP4K1) (Homo sapiens, UniProt Q92918); assay: Kinase profiling, HPK1; type: biochemical
T2 construct: purchased Eurofins (France), KinaseProfiler service
Protocol: as §1

[6] = target: T3, JAK1 (Homo sapiens, UniProt P23458); assay: Kinase profiling, JAK1; type: biochemical
T3 construct: purchased Eurofins (France), KinaseProfiler service
Protocol: as §1

[7] = target: T4, CaMKIV (Homo sapiens, UniProt Q16566); assay: Kinase profiling, CaMKIV; type: biochemical
T4 construct: purchased Eurofins (France), KinaseProfiler service
Protocol: as §1

[8] = tested on: Lck; assay: Kinase profiling, Lck; type: biochemical; conditions: Eurofins KinaseProfiler, [γ-33P-ATP] scintillation, 0.003-10 uM, 2% DMSO, no pre-incubation, Fig. 6c, 6e
Protocol: Non-cell-based kinase profiling assays were performed by Eurofins (France). All compounds were prepared to 50 × final assay concentration in 100% DMSO. This working stock of the compound was added to assay wells as the first component in the reaction, followed by the remaining components as detailed in the specific assay protocols below. In the standard KinaseProfiler service, there was no pre-incubation step between the compound and the kinase prior to initiation of the reaction. Control wells contained all components of the reaction, except the compound of interest; however, DMSO (at a final concentration of 2%) was included in these wells to control for solvent effects. […] The reference inhibitors for each kinase are indicated in the methods for each kinase assay. […] Kinase activities were assessed in the presence of compounds at a concentration range of 0.003 -10 uM and the following kinases were tested: c-Src, Lck, Jak1, Jak2, Tyk2, CaMKIV and HPK1 (MAP4K1). Reactions between IK14004, substrates and MgAcetate/[γ^33P-ATP] mixes for each respective kinase were stopped by the addition of phosphoric acid and reaction mixtures spotted on P30 filtermats for scintillation according to the detailed methods available from Eurofins. The activities of Lck and c-Src were also assessed in the presence of the unconjugated components of IK14004, i.e., […] (IK14000) and the dodecanoic acid moiety [(2)Adod]4 (IK00041) and a lipidic peptide containing substituted amino acid residues (IK14DE04).

[9] = tested on: c-Src; assay: Kinase profiling, c-Src; type: biochemical; conditions: Eurofins KinaseProfiler, [γ-33P-ATP] scintillation, 0.003-10 uM, 2% DMSO, no pre-incubation; Fig. 6d (IK14004 at concentrations below 3 µM), Fig. 6e
Protocol: as §1

[10] = tested on: CD40L expression; conditions: 48 h, in vitro; cited from earlier work
Description: An integrated understanding of how IL-2 and TCR co-stimulatory signals combine to control homeostasis in distinct tissue locations is lacking. The effects of IK14004 on cytokine production are shown in the Schematic (Fig. 7) together with putative effects on kinase-mediated signalling pathways involved in production of these cytokines. Maturation of DCs involves CD40L-CD40 interactions dependent upon T helper expression of CD40L[21],[22].

[11] = blank wells, baseline 0% kinase activity remaining

T2 sequence (Q92918 whole entry): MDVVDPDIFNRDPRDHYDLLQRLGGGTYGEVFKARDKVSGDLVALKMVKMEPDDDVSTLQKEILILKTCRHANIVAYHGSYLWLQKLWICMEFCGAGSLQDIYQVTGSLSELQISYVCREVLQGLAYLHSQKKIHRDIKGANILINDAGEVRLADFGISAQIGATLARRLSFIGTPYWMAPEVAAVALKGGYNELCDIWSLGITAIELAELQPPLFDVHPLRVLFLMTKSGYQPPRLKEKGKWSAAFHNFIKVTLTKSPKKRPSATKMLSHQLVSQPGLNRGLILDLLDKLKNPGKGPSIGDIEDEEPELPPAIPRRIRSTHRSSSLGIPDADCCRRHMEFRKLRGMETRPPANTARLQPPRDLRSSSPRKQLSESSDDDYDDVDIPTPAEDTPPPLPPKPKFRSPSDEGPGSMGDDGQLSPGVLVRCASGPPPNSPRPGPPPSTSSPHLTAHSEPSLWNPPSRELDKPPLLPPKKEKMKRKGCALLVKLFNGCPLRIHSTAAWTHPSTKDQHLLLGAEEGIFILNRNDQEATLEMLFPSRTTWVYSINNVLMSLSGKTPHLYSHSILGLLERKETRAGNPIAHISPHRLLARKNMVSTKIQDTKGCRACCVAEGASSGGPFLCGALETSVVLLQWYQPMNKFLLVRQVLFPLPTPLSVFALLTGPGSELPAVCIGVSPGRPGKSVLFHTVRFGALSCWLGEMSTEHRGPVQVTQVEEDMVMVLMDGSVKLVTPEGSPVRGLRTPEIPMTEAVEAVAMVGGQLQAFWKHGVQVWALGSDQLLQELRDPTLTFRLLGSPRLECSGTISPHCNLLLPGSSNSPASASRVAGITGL
T3 sequence (P23458 whole entry): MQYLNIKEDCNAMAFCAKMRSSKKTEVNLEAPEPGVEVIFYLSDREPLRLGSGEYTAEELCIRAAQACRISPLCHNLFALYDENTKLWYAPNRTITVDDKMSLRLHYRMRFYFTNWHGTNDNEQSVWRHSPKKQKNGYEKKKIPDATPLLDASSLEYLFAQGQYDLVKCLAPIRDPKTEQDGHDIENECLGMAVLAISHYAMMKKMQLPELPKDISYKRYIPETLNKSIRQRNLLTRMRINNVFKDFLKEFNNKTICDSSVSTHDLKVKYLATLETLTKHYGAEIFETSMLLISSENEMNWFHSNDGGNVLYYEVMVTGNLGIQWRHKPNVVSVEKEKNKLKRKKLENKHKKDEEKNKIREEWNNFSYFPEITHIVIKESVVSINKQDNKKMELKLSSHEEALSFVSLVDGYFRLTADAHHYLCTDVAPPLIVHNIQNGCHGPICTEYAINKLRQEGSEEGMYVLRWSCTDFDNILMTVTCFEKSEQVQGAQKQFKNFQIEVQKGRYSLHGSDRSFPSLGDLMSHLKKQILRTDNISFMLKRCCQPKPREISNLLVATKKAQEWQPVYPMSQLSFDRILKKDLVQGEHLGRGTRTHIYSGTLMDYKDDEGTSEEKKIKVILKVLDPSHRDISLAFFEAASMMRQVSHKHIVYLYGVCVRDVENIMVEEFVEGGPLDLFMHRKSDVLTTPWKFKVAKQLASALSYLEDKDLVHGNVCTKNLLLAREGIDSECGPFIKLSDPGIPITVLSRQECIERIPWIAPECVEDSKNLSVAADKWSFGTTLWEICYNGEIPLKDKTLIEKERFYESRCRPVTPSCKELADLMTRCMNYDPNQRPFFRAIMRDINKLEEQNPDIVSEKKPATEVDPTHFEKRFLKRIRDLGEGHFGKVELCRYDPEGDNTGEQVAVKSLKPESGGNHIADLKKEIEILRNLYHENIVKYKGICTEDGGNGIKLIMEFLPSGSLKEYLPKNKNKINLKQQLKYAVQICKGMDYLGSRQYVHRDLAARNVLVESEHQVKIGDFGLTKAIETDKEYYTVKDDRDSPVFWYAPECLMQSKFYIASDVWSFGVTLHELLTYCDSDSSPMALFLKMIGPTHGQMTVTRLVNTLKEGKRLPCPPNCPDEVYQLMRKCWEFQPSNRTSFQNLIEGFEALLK
T1 sequence (P29597 whole entry): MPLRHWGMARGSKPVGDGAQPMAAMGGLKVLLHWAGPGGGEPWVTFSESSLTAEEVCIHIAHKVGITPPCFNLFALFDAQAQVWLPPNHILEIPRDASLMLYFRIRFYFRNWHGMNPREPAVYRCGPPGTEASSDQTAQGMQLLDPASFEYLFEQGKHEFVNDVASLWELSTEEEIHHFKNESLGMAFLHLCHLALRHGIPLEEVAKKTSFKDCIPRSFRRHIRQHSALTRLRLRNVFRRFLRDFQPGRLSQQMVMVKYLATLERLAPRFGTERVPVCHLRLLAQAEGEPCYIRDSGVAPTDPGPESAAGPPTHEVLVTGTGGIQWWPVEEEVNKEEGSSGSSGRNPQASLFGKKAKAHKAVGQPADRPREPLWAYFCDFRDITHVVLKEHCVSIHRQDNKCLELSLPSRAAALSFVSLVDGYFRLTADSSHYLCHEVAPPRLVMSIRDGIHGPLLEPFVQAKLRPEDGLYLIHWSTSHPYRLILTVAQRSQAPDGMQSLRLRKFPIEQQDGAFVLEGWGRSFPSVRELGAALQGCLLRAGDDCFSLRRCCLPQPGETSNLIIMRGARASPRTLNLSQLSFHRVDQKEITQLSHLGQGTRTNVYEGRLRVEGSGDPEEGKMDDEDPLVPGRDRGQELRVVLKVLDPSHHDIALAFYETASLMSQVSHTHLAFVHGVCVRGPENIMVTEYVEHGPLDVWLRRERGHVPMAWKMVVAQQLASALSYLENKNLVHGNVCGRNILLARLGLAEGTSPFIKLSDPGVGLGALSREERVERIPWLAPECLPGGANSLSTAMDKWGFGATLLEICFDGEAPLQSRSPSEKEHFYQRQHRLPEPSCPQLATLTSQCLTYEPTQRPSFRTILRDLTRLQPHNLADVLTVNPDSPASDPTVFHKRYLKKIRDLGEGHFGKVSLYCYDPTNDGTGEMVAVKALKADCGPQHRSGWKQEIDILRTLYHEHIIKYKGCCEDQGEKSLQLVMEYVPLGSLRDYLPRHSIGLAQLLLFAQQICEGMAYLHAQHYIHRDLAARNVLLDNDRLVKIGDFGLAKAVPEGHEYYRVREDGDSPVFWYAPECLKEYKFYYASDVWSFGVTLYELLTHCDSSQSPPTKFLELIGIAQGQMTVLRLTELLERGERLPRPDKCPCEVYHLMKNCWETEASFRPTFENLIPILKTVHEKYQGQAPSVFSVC

In the case of `COc1cc(-c2nn([C@H]3CC[C@H](N4CCN(C(C)=O)CC4)CC3)c3ncnc(N)c23)ccc1NC(=O)c1cc2ccccc2n1C` [A-770041], the “IL-2 in supernatant of CD3+ T cell cultures, A-770041” value ([1]; 0.1 µM in 0.1% DMSO, anti-CD3/anti-CD28, 72 h, ELISA, 7 experimental replicates, paired t-test **P < 0.01, Fig. 6a) is given as “induced IL-2 production”, the “IL-2 level relative to IK14004” value ([1]; A-770041 0.1 µM versus IK14004 (0.16 uM), 72 h, Fig. 6a vs 1f) is given as “much greater level than in the presence of IK14004” and the IC50 [2] is given as 0.147 µM. The “IL-2 production, whole blood” value ([3]; heparinised whole blood exposed to anti-CD3 plus PMA, ref Stachlewitz and colleagues [66]) was “inhibition of IL-2 production” and the IC50 ([3]; read-out: IC50, inhibition of IL-2 production, in vitro) was 0.08 µM.

In the case of `CCCCCCCCCC[C@H](NC(=O)[C@H](CCCCCCCCCC)NC(=O)[C@H](CCCCCCCCCC)NC(=O)[C@H](CCCCCCCCCC)NC(=O)[C@H](CCCNC(=N)N)NC(=O)[C@H](Cc1ccc(O)cc1)NC(=O)[C@H](CC(C)C)NC(=O)[C@@H]1CCCN1C(=O)[C@H](CC(N)=O)NC(=O)[C@H](CCCCN)NC(=O)[C@H](C)NC(=O)[C@H](CCCCN)NC(=O)[C@H](CO)NC(=O)[C@@H](N)CCCNC(=N)N)C(N)=O` [IK14004] (H-RSKAKNPLYR[Gly(decyl)][Gly(decyl)][Gly(decyl)][Gly(decyl)]-NH2), the IC50 [4] is reported as 1 µM, the IC50 ([5]; non-cell-based, [γ-33P-ATP], 2% DMSO, no pre-incubation, Fig. 6f) is reported as about 1 µM and the IC50 ([6]; non-cell-based, [γ-33P-ATP], 2% DMSO, no pre-incubation, Fig. 6i) is reported as 3 µM. It also gave an IC50 ([7]; non-cell-based, [γ-33P-ATP], 2% DMSO, no pre-incubation, Fig. 6h) of 3 µM.

In the case of `CN[C@@H]1C[C@H]2O[C@@](C)([C@@H]1OC)n1c3ccccc3c3c4c(c5c6ccccc6n2c5c31)C(=O)NC4` [staurosporine, reference compound], the “HPK1 activity, reference inhibitor” value [5, 11] is reported as “abolished kinase activity”, the “JAK1 activity, reference inhibitor” value [6, 11] is reported as “abolished kinase activity” and the “CaMKIV activity, reference inhibitor” value [7, 11] is reported as “abolished kinase activity”.

In the case of DSEAENPLYD [IK14DE04], the Lck activity [8] is reported as “abolished the effects of IK14004” and the c-Src activity [9] is reported as “abolished the effects of IK14004”.

For [(2)Adod]4 [IK00041], the Lck activity [8] was “neither IK14000 nor IK00041 had an effect”.

B1: daclizumab: a humanised anti-CD25 mAb (antibody, chains of the INN, looked up, V domains shown)
VH: QVQLVQSGAEVKKPGSSVKVSCKASGYTFTSYRMHWVRQAPGQGLEWIGYINPSTGYTEYNQKFKDKATITADESTNTAYMELSSLRSEDTAVYYCARGGGVFDYWGQGTLVTVSS
VL: DIQMTQSPSTLSASVGDRVTITCSASSSISYMHWYQQKPGKAPKLLIYTTSNLASGVPARFSGSGSGTEFTLTISSLQPDDFATYYCHQRSTYPLTFGQGTKVEVK
For B1, the “CD40L expression at later time points” value [10] is listed as “inhibitable”.
